Laboratory results from patent publication US11260108B2, “MIC-1 and GLP-1 for use in the treatment of obesity” (Novo Nordisk A/S, priority 2017, dated 2022).

Test system: male obese Sprague Dawley rats
Assay: Body weight lowering in obese rat, MIC-1-HSA in combination with semaglutide (Example 2)
Assay type: in vivo
From the text: The purpose of the study in example 2 was to investigate effects of a MIC-1-HSA compound in combination with the GLP-1 compound semaglutide on body weight lowering in obese rat.
60 male obese Sprague Dawley rats from Taconic were used. Animals where housed 2 per cage and had ad libitum access to high-fat diet (45 kcal % fat, Research Diets Inc, diet 12451). Mean starting body weight was 736.0 g (634.7-982.4 g). Animals were randomised into 6 groups based on body weight (n=10). Animals were housed in reversed light cycle (dark 11:00-23:00). Vehicle and semaglutide were dosed subcutaneously (SC) once daily (QD) for the duration of the study (study day 0-26) at 10 am. Because of the immunogenic properties of MIC-1-HSA in rodents, the dosing period with MIC-1-HSA was limited to 12 days. MIC-1-HSA was dosed SC every other day, starting at study day 15 and ending at day 26. The two compounds were in all cases dosed individually and were not administrated in the same formulation using the same syringe.
Due to a long in vivo terminal half-life of MIC-1 HSA (˜50 hrs in lean rat) animals were dosed with a bolus dose at day 15 and subsequent doses of MIC-1-HSA were reduced to compensate for the protracted half-life to achieve a stable plasma exposure during the study. […] Dose volume was adjusted to daily body weight. Please see table 3.
The dose of Semaglutide was 2 nmol/kg and was selected in order to achieve a therapeutic relevant pharmaco-dynamic effect.
From day −1 and during the entire dosing period until day 26, body weight was monitored daily prior to dosing.
The dosing was performed using insulin syringe and a dosing volume of 1 ml/kg (2.3 ml/kg for bolus dose of MIC-1-HSA).
In table 4 are shown pharmacodynamic effects expressed as changes in body weights of obese rats in response to the 6 treatment arms. Data are expressed as the average values as grams (A) and as percentages (B). “Delta 0-26” is the change in body weight from day 0 to day 26. “vs vehicle” is the change in body weight at day 26 in comparison with the vehicle group at day 26. “Predicted” is the expected change in body weight based on body weight changes in the associated MIC-1-HSA and semaglutide mono-therapy arms. “Synergy” expresses the unexpected and additional effect beyond the predicted effect of the MIC-1-HSA and semaglutide combination. This value is calculated by subtracting the predicted value from the actual effect of the combination (vs vehicle). A negative synergy value reflects an additional unexpected synergistic body weight lowering effect.

[1] = Sema 2 nmol/kg, change day 0 to day 26
[2] = Sema 2 nmol/kg, day 26 vs vehicle group

## N6.26-{18-[N-(17-carboxyheptadecanoyl)-L-γ-glutamyl]-10-oxo-3,6,12,15-tetraoxa-9,18-diazaoctadecanoyl}-[8-(2-amino-2-propanoic acid),34-L-arginine]human glucagon-like peptide 1(7-37) [Sema]
Sema 2 nmol/kg SC QD day 0-26
  Body weight [% of study start] Study end: 95 % of study start
  Body weight [gram] Study end: 746 gram
[1]
  Body weight [% of study start] Delta 0-26: −5.4 % of study start
  Body weight [gram] Delta 0-26: −41.8 gram
[2]
  Body weight [% of study start] vs vehicle: −8.0 % of study start
  Body weight [gram] vs vehicle: −62.2 gram
Semaglutide monotherapy 2 nmol/kg, day 26
  reduced body weight compared to vehicle: 8.0%
